Reference: PMC5760734, “Development of an oral once-weekly drug delivery system for HIV antiretroviral therapy” (Nature Communications, 2018)
Read-outs that look alike come from different tables or passages of the source.

Legend:
[1] = Plasma pharmacokinetics of immediate release and gastric resident dosage forms in pigs; assay type: in vivo, Yorkshire pigs
Procedure: All animal experiments were approved by the Committee on Animal Care at the Massachusetts Institute of Technology. In vivo pharmacokinetics were evaluated in an unblinded fashion in female Yorkshire pigs (50–95 kg) that were randomly assigned to the immediate release or sustained release groups. Animals were fed daily in the morning and in the evening with a diet consisting of pellets (Laboratory mini-pig growler diet, 5081), with a midday snack consisting of various fruits and vegetables. Specifically, the pellets were 5/32” x ¼” length, and consisted of ground oats, alfalfa meal, wheat middlings, soybean meal, dried beet pulp, salts and other micronutrients.
To determine the oral pharmacokinetics of immediate release dosage forms of DTG and CAB, 50 mg of DTG and 30 mg of CAB were weighed and filled into gelatine capsules. For RPV pharmacokinetics, RPV base was dissolved in poly(ethylene glycol) (molecular weight—400 Da) containing 10-fold molar excess of citric acid. The concentration of RPV base in this solution was 5 mg/mL and 5 mL of the solution was dosed in a gelatine capsule. […] To determine oral pharmacokinetics from gastric retentive dosage forms, the arms of dosage forms (2–3/pig containing 350 mg DTG, 175 mg RPV or 210 mg CAB) were folded into capsule shells immediately prior to dosing. […]. The capsules containing drug or dosage form were delivered into the intestine or stomach respectively. At various time points, blood samples (0.5 mL) were collected from a central line connected to the external jugular vein or from a mammary vein into […] Vacutainer gold top tubes (Becton, Dickinson and Co. USA). Plasma samples were separated from blood by centrifugation (1800g, 10 min at 4 °C) and were stored at −80 °C. Atropine can reduce gastric acid production and gastric motility which may affect the overall drug pharmacokinetics and the gastric retention of the dosage form. […]. Drug concentrations in the plasma were analysed using UPLC-MS/MS. Plasma samples (100 µL) were spiked with 200 µL acetonitrile solution of 250 µg/mL maraviroc (internal standard) to cause precipitation. Samples were vortexed and sonicated for 10–20 min and then centrifuged (21130g, 10 min). Two hundred microliters of solution were pipetted into a 96-well plate containing 200 µL of nanopure water. Finally, 2.5 μL was injected onto the UPLC–ESI–MS system for analysis.
UPLC separation was carried out on a Waters® UPLC aligned with a Waters® Xevo–TQ-SMS mass spectrometer (Waters Ltd., UK). MassLynx® 4.1 software was used for data acquisition and analysis. Liquid chromatography separation was performed on an Acquity® UPLC CSH C18 (50 × 2.1 mm, 1.7 μm particle size) column at 50 °C. The mobile phase consisted of acetonitrile spiked with 0.1% formic acid and 10 mM ammonium formate solution. The mobile phase was flowed at a rate of 0.6 mL/min using a time and solvent gradient composition. The initial composition (100% aqueous) was held for 1 min, following which the composition was changed linearly to 20% organic phase over the next 0.25 min. The composition was then brought to 100% organic over 1.25 min, held for 0.5 min and finally shifted to the initial composition and held constant until the end of the run for column equilibration. The total run time was 4 min and sample injection volume was 2.5 μL. The mass spectrometer was operated in the multiple reaction monitoring (MRM) mode. Sample introduction and ionization was by electrospray ionization (ESI) in the positive ion mode. DTG, RPV and CAB were analysed at mass-to-charge ratios of […] respectively. Stock solutions of DTG, RPV, CAB, and an internal standard maraviroc were prepared in methanol at a concentration of 500 μg/mL. A ten-point calibration curve was prepared ranging from 2.5–5000 ng/mL. Quality control samples were prepared in a similar procedure using an independent stock solution at three concentrations (5, 50 and 500 ng/mL). […]

[2] = Drug stability at high temperature (150 °C, 2 h), HPLC; assay type: physicochemical; conditions: 150 °C for 2 h
Procedure: To determine the drug stability at high temperatures, the drug was weighed in a 20 mL glass vial, and placed in a convection oven at 150 °C for 2 h. Drug was dissolved in methanol, and the concentration was compared to that of an unheated standard of the same initial concentration via HPLC.

[3] = tested on: drug-resistant HIV strains; conditions: cited from earlier work
HIV = tested on: HIV; design: method as in ref 2–6 (a number printed in a supplementary file, which may have a reference list of its own: not looked up in the article's list); conditions: monotherapy or dual therapy with rilpivirine, after a two-year follow up; cited from earlier work
[4] = immediate release formulation, pigs

Structure (SMILES): C[C@@H]1CCO[C@H]2Cn3cc(C(=O)NCc4ccc(F)cc4F)c(=O)c(O)c3C(=O)N12 [DTG, dolutegravir]
- Tmax ([1]; female, Yorkshire, pig, plasma, oral, immediate release formulation, pigs, post-dose, read-out: time of maximum plasma concentration (converted)): 6 h
- mean peak plasma concentration relative to immediate release ([1]; gastric resident system, pigs): comparable to that of the immediate release formulation
- time to mean peak plasma concentration ([1]; gastric resident system, pigs): ≤ 6 h
- average (sustained) plasma drug concentrations throughout the week following dosing ([1]; gastric resident system, pigs, n = 3): 200 to 800 ng/mL
- duration of sustained drug concentrations ([1]; gastric resident system, single dose): up to 1 week
- day at or after which no drug was detected in plasma [1, 4]: 2 days
- plasma drug concentrations on day 1 [1, 4]: low but detectable
- time to detectable plasma concentrations [1, 4]: ≤ 15 min
- average maximum plasma concentration ([1]; immediate release formulation, pigs, n = 3): ~ 500 ng/mL
- stability at elevated temperature [2]: stable
- Fold change in IC50 (ρ) ([3]; mutation E138K/Q148K): 19.00
- Fold change in IC50 (ρ) ([3]; mutation E138K): 0.40
- Fold change in IC50 (ρ) ([3]; mutation E157Q/R263K): 19.90
- Fold change in IC50 (ρ) ([3]; mutation E157Q): 0.01
- Fold change in IC50 (ρ) ([3]; mutation G140S/Q148R): 7.98
- Fractional change in slope (σ) ([3]; mutation G140S/Q148R): 0.01
- Fold change in IC50 (ρ) ([3]; mutation G140S): 0.76
- Fractional change in slope (σ) ([3]; mutation G140S): -0.01
- Fold change in IC50 (ρ) ([3]; mutation H51Y/R263K): 6.95
- Fold change in IC50 (ρ) ([3]; mutation H51Y): 1.25
- Fold change in IC50 (ρ) ([3]; mutation M50I/R263K): 15.59
- Fold change in IC50 (ρ) ([3]; mutation M50I): 1.94
- Fold change in IC50 (ρ) ([3]; mutation N155H): 1.96
- Fold change in IC50 (ρ) ([3]; mutation Q148K): 1.10
- Fold change in IC50 (ρ) ([3]; mutation Q148R/N155H): 10.00
- Fold change in IC50 (ρ) ([3]; mutation Q148R): 1.20
- Fold change in IC50 (ρ) ([3]; mutation R263K): 2.00
- patients with plasma viremia levels of <50 copies/mL (HIV): > 95 % patients
